Assay results reported in ChEMBL document CHEMBL2176988 (J Med Chem, 2012).
Active and inactive are the calls of the source. No cut-off for these calls is given here.

Tests used:
[1] = molecular target: T1, Neuronal acetylcholine receptor; alpha4/beta2 (Homo sapiens, UniProt P17787+P43681); test: Partial agonist activity at alpha4beta2 nAChR in human SH-EP1 cells assessed as calcium flux by calcium4-based FLIPR assay; assay type: functional, cell-based
[2] = molecular target: Neuronal acetylcholine receptor subunit alpha-7 (Homo sapiens, UniProt P36544); test: Displacement of [3H]epibatidine from human alpha7 nAChR expressed in CHO cells after 2 hrs by liquid scintillation counting; assay type: cell-based
Chain of Neuronal acetylcholine receptor subunit alpha-7 (P36544 whole entry): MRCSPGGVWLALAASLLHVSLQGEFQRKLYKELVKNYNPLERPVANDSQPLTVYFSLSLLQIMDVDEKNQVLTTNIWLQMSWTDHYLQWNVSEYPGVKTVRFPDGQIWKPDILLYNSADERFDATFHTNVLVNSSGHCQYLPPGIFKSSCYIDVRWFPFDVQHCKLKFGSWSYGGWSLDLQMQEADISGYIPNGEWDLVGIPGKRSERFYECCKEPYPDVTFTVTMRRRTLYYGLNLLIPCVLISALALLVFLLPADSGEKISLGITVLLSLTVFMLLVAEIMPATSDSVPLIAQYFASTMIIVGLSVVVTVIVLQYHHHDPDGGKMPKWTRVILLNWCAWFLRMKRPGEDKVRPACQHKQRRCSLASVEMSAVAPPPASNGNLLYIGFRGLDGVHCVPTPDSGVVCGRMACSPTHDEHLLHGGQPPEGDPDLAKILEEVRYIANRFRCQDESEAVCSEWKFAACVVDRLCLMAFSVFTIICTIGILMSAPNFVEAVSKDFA

[3] = molecular target: T1, Neuronal acetylcholine receptor; alpha4/beta2; test: Partial agonist activity at alpha4beta2 nAChR in human SH-EP1 cells assessed as calcium flux by calcium4-based FLIPR assay relative to nicotine; assay type: functional, cell-based
[4] = molecular target: T2, Neuronal acetylcholine receptor; alpha3/beta4 (Homo sapiens, UniProt P30926+P32297); test: Agonist activity at human alpha3beta4 nAChR expressed in CHO cells assessed as calcium flux by calcium4-based FLIPR assay relative to nicotine; assay type: functional, cell-based
T2 sequence (P30926 whole entry): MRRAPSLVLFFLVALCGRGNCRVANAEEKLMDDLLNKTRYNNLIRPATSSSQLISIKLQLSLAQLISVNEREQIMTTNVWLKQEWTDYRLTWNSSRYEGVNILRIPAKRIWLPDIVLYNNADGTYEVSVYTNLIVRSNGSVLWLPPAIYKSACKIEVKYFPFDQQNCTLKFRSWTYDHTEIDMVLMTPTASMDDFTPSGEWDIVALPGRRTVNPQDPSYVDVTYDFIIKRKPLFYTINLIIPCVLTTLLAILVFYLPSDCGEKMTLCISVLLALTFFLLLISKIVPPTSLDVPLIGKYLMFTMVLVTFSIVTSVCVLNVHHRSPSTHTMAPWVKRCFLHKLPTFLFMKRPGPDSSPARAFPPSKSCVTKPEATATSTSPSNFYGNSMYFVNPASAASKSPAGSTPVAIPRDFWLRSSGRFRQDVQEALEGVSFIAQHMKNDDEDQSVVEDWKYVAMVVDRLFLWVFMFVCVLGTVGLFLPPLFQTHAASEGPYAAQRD
T2 sequence (P32297 whole entry): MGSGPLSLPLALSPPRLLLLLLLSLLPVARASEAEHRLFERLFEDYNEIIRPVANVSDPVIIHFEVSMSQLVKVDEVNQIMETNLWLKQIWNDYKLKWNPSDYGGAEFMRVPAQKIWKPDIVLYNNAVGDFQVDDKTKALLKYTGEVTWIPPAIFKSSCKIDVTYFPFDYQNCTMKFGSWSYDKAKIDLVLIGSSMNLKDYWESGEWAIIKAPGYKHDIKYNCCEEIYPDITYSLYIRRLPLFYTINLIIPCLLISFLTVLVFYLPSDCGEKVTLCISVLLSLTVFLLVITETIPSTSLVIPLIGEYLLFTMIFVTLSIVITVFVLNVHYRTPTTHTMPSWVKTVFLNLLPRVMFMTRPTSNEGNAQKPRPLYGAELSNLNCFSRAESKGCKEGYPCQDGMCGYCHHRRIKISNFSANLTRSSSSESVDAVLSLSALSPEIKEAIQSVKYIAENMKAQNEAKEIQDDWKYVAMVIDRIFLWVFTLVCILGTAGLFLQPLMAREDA

[5] = molecular target: T2, Neuronal acetylcholine receptor; alpha3/beta4; test: Displacement of [3H]epibatidine from human alpha3beta4 nAChR expressed in CHO cells after 2 hrs by liquid scintillation counting; assay type: cell-based
[6] = molecular target: Neuronal acetylcholine receptor; alpha4/beta2 (Rattus norvegicus, UniProt P09483+P12390); test: Displacement of [3H]epibatidine from alpha4beta2 nAChR in Sprague-Dawley rat cortex after 2 hrs by liquid scintillation counting
Chain of Neuronal acetylcholine receptor; alpha4/beta2 (Rattus norvegicus, UniProt P09483+P12390) (P09483 whole entry): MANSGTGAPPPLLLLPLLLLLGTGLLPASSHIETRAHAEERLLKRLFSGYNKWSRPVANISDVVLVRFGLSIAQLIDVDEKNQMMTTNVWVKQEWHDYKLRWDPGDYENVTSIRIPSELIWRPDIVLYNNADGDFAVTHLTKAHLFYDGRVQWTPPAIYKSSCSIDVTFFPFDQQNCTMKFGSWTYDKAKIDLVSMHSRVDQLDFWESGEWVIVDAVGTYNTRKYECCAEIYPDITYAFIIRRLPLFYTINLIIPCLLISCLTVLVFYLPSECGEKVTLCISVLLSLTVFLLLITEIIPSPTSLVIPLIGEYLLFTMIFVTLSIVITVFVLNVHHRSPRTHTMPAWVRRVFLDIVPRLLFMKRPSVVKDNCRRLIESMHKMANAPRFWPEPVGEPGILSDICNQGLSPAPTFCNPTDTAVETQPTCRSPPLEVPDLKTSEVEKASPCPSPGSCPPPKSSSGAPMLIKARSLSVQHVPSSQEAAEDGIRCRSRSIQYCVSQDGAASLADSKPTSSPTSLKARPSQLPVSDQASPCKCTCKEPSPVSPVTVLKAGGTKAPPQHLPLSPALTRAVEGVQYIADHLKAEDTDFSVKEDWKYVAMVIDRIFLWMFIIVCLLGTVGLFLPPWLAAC
Chain of Neuronal acetylcholine receptor; alpha4/beta2 (Rattus norvegicus, UniProt P09483+P12390) (P12390 whole entry): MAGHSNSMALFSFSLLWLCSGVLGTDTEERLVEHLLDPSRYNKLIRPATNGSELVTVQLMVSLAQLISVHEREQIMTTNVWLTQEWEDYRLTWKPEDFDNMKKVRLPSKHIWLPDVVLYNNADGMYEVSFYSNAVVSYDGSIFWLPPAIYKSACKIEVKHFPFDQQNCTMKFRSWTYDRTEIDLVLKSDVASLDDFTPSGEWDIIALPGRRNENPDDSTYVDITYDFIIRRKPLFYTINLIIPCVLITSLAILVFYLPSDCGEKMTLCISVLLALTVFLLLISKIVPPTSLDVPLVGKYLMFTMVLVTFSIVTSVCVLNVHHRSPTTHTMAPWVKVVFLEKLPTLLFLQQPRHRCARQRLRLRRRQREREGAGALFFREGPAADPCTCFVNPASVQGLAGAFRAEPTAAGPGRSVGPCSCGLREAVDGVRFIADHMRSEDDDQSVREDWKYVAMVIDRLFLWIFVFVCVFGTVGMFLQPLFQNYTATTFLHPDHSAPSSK

[7] = molecular target: T2, Neuronal acetylcholine receptor; alpha3/beta4; test: Agonist activity at human alpha3beta4 nAChR expressed in CHO cells assessed as calcium flux by calcium4-based FLIPR assay; assay type: functional, cell-based
[8] = molecular target: T1, Neuronal acetylcholine receptor; alpha4/beta2; test: Displacement of [3H]nicotine from alpha4beta2 nAChR in human SH-EP1 cells after 2 hrs by liquid scintillation assay; assay type: cell-based
[9] = molecular target: T2, Neuronal acetylcholine receptor; alpha3/beta4; test: Displacement of [3H]epibatidine from alpha3beta4 nAChR in human SH-SY5Y cells after 2 hrs by liquid scintillation counting; assay type: cell-based
[10] = molecular target: T1, Neuronal acetylcholine receptor; alpha4/beta2; test: Agonist activity at alpha4beta2 nAChR in human SH-EP1 cells assessed as calcium flux by calcium4-based FLIPR assay; assay type: functional, cell-based
[11] = molecular target: T1, Neuronal acetylcholine receptor; alpha4/beta2; test: Agonist activity at alpha4beta2 nAChR in human SH-EP1 cells assessed as calcium flux by calcium4-based FLIPR assay relative to nicotine; assay type: functional, cell-based
[12] = molecular target: T1, Neuronal acetylcholine receptor; alpha4/beta2; test: Binding affinity to alpha4beta2 nAChR; assay type: protein-complex assay
Cytochrome P450 2D6 = Cytochrome P450 2D6 (Homo sapiens, UniProt P10635); test: Inhibition of CYP2D6; assay type: ADME
hERG (KCNH2) = hERG (KCNH2) (Homo sapiens, UniProt Q12809); test: Inhibition of human ERG at 10 uM
Chain of hERG (KCNH2) (Q12809 whole entry): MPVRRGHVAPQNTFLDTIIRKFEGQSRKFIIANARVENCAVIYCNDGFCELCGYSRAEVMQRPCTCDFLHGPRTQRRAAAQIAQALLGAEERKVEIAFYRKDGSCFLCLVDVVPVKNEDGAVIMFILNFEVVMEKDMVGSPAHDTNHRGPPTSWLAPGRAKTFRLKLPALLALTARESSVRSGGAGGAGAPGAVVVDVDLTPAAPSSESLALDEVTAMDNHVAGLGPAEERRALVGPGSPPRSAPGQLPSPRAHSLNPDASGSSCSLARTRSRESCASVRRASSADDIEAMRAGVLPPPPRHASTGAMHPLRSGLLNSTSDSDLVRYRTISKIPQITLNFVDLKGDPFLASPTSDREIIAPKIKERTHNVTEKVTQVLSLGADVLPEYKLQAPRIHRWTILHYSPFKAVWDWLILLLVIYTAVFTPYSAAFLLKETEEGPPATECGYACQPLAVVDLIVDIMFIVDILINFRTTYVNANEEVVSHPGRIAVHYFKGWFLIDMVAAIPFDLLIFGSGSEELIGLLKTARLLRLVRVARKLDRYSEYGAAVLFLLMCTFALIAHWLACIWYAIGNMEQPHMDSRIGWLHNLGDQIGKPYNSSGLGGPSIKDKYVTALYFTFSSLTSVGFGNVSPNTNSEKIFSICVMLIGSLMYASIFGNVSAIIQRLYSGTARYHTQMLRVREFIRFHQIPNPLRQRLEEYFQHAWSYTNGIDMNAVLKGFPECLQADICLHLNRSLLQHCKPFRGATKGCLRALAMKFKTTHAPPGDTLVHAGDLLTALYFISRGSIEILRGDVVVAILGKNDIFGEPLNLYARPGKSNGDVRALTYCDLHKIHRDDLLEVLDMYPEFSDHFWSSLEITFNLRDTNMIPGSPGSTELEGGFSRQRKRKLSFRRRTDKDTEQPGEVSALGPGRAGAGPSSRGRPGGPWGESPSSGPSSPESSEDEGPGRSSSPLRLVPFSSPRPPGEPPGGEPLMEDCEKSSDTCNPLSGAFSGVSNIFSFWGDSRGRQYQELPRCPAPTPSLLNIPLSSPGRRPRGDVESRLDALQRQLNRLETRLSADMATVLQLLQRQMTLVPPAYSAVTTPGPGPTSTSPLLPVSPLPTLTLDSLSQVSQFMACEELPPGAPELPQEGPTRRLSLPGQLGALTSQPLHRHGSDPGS

[13] = molecular target: Acetylcholine receptor; alpha1/beta1/delta/gamma (Homo sapiens) (UniProt P02708+P07510+P11230+Q07001); test: Agonist activity at alpha1beta1gammadelta nAChR; assay type: functional
[14] = Agonist activity at ganglion nAChR; assay type: functional
Rattus norvegicus [15] = test: Procognitive activity in Sprague-Dawley rat assessed as increase in working memory at 0.3 to 3 mg/kg, po administered QD for 3 days 30 mins prior to testing by novel object recognition test; assay type: functional, organism-based
[16] = molecular target: T3, 5-hydroxytryptamine receptor 3A (Homo sapiens) (UniProt P46098); test: Inhibition of 5HT3 receptor at 10 uM
T3 sequence (whole entry): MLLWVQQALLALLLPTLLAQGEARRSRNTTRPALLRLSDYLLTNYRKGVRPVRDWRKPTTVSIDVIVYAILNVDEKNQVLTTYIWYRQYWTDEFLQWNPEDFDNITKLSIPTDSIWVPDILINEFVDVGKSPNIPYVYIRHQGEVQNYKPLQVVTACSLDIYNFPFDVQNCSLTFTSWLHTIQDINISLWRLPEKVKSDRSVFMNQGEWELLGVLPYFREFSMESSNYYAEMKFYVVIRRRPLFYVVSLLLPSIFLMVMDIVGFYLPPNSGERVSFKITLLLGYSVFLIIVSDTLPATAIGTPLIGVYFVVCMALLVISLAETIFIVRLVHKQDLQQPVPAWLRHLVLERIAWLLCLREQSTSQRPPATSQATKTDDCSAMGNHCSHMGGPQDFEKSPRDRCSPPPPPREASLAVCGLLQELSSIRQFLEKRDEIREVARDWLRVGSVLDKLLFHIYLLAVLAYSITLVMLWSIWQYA

[17] = Inhibition of adrenergic alpha2 receptor at 10 uM
Rattus norvegicus [18] = test: Procognitive activity in Sprague-Dawley rat assessed as increase in working memory at 1 mg/kg, po administered QD for 3 days 30 mins prior to testing by novel object recognition test (reference value: 51%); assay type: functional
Rattus norvegicus [19] = test: Procognitive activity in Sprague-Dawley rat assessed as recognition index at 0.1 mg/kg, po administered QD for 3 days 30 mins prior to testing by novel object recognition test (reference value: 50%); assay type: functional
[20] = molecular target: T3, 5-hydroxytryptamine receptor 3A (Homo sapiens); test: Inhibition of human 5HT3 receptor at 10 uM
[21] = molecular target: T4, 5-hydroxytryptamine receptor 3A (Mus musculus) (UniProt P23979); test: Inhibition of mouse 5HT3 receptor at 10 uM
T4 sequence (whole entry): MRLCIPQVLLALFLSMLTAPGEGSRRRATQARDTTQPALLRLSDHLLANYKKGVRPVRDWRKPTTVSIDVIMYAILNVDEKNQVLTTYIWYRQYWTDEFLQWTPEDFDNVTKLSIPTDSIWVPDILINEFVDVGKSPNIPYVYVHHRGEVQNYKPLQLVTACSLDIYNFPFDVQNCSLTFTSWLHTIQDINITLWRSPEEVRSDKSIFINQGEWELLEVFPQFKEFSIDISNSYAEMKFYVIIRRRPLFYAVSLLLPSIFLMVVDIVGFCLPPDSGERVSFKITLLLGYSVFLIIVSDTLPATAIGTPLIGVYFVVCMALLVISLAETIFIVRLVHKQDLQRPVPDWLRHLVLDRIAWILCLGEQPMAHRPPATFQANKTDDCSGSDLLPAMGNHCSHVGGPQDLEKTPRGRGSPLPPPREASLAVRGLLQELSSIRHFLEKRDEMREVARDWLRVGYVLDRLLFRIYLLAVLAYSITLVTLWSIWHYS

[22] = molecular target: T5, 5-hydroxytryptamine receptor 3A (Homo sapiens, UniProt P46098); test: Inhibition of human 5HT3 receptor
T5 sequence (P46098 whole entry): T3 sequence (whole entry)

Rattus norvegicus [23] = test: Procognitive activity in Sprague-Dawley rat assessed as increase in working memory at 0.1 to 0.3 mg/kg, po administered QD for 3 days 30 mins prior to testing by novel object recognition test; assay type: functional, organism-based

T1 sequence (P17787 whole entry): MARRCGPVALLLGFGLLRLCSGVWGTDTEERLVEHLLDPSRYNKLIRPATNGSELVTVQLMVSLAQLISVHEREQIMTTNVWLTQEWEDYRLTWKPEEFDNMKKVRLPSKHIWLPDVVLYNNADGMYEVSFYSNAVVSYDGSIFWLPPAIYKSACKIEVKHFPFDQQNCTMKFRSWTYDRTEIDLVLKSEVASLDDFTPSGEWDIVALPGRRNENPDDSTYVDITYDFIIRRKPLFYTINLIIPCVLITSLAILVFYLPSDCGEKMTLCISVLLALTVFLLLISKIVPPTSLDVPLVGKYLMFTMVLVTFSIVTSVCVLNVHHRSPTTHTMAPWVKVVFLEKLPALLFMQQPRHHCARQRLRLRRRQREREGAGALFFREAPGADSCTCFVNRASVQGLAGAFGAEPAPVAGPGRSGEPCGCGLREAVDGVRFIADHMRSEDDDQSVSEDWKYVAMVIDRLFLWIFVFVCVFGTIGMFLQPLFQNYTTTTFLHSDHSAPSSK
T1 sequence (P43681 whole entry): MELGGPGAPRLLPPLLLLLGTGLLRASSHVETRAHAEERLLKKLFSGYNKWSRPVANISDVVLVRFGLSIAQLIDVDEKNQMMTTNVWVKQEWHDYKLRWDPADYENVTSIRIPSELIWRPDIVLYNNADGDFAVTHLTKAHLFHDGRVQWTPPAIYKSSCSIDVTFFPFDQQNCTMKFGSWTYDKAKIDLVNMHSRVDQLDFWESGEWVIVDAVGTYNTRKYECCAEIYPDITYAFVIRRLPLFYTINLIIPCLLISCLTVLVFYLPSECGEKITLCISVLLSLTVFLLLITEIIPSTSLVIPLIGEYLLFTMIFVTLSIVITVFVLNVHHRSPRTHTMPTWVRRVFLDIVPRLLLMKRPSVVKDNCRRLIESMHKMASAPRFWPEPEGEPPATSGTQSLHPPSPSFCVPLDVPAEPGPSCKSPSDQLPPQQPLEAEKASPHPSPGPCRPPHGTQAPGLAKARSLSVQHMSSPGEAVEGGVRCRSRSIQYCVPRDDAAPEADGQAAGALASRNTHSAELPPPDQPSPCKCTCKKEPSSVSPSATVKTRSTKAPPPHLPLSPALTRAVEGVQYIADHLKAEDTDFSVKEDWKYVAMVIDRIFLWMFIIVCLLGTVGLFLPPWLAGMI

Row | Structure (SMILES) | EC50 [1] [µM] | Ki [2] [µM] | Emax [3] [%] | Emax [4] [%] | Ki [5] [µM] | Ki [6] [µM] | EC50 [7] [µM] | Ki [8] [µM] | Ki [12] [µM] | also measured
1 | O=C(c1occc1F)N1CC2CNCC(C2)C1 | 22 | > 10 | 15 | 54 | > 10 | 0.21 | 32 | 0.05 |  | 
2 | CCOc1cncc(/C=C/CCNC)c1 |  | 71 |  | 10 |  | 0.006 | 20 | 0.012 |  | Ki [9]: 7 µM; EC50 [10]: 0.17 µM; Emax [11]: 57%
3 | O=C(c1cc(Br)co1)N1CC2CNCC(C2)C1 | 18 | > 10 | 34 | 13 | 9.3 | 0.057 | 50 | 0.003 |  | 
4 | CN[C@@H](C)C/C=C/c1cccnc1 |  |  |  |  |  |  |  |  | 0.024 | 
5 | N#Cc1ccoc1C(=O)N1CC2CNCC(C2)C1 | 26 | > 10 | 8 | 16 | > 10 | 0.28 | 21 | 0.039 |  | 
6 | O=C(c1ccc(F)o1)N1CC2CNCC(C2)C1 | 0.3 | 4.7 | 73 | 110 | 1.1 | 0.015 | 9.1 | 0.003 |  | 
7 | Cc1ccc(C(=O)N2CC3CNCC(C3)C2)o1 | 8.5 | > 10 | 19 | 11 | > 10 | 0.24 | 37 | 0.046 |  | 
8 | O=C(c1occc1Cl)N1CC2CNCC(C2)C1 | 76 | > 10 | 3 | 26 | 8.7 | 0.12 | 28 | 0.015 |  | 
9 | O=C(c1ccc(Cl)o1)N1CC2CNCC(C2)C1 | 1.4 | > 10 | 47 | 61 | 6.4 | 0.007 | 15 | 0.005 |  | inhibition (INH) (Cytochrome P450 2D6): Not Active; inhibition at 10 µM (hERG (KCNH2)): < 5%; Activity [13]: inactive; Activity [14]: inactive; Activity (Rattus norvegicus [15]): Active; inhibition [16]: 40%; inhibition [17]: 35%; %max (Rattus norvegicus [18]): 75%
10 | CN1CCC=C(c2ccc(Cl)nc2)C1 |  |  |  |  |  |  |  |  | 0.0022 | 
11 | C1=C(c2cccnc2)C2CCC(CC1)N2 (stereo not drawn) |  |  |  |  |  |  |  |  | 0.00027 | 
12 | CCC(=O)C1=CCCN(C)C1 [ARECOLON] |  |  |  |  |  |  |  |  | 0.0058 | 
13 | O=C(c1ccc(Cl)o1)N1CC2CNCC2C1 (stereo not drawn) [AZD1446] |  | 6.7 |  | 10 | > 10 | 0.034 | 70 | 0.03 |  | inhibition (INH) (Cytochrome P450 2D6): Not Active; %max (Rattus norvegicus [19]): 74%; inhibition at 10 µM (hERG (KCNH2)): < 5%; EC50 [10]: 4.9 µM; Activity [13]: inactive; inhibition [20]: 87%; inhibition [21]: 97%; Emax [11]: 120%; Ki [22]: 0.7 µM; Activity [14]: inactive; Activity (Rattus norvegicus [23]): Active
